According to patent publication US20120309622A1, “HERBICIDES CONTAINING SUBSTITUTED THIEN-3-YL-SULPHONYLAMINIO(THIO)CARBONYL-TRIAZOLIN(ETHI)ONES” (BAYER INTELLECTUAL PROPERTY GMBH, priority 2001, published 2012):
Read-outs that look alike come from different tables or passages of the source.

Experiments:
Assay in all cases: Post-emergence test/greenhouse, % damage after three weeks
Assay type in all cases: in vivo
[1] = system: Cyperus esculentus
Excerpt: (§1) The expected action for a given combination of two herbicides can be calculated as follows (cf. COLBY, S. R.: “Calculating synergistic and antagonistic responses of herbicide combinations”, Weeds 15, pages 20-22, 1967):
(§2) If • X=% damage by herbicide A (active compound of the formula I) at an application rate of p kg/ha and • Y=% damage by herbicide B (active compound of the formula II) at an application rate of q kg/ha and • E=the expected damage of herbicides A+B at an application rate of p+q kg/ha, then
(§3) If the actual damage exceeds the calculated value, the combination has a superadditive effect, that is to say a synergistic effect.
(§4) Test plants are grown under control conditions (temperature and light). Once the plants have reached a height of 5 to 15 cm, the test compound or the combination of test compounds is applied by spraying such that the particular amounts of active compound desired are applied per unit area. The concentration of the spray liquor is chosen so that the particular amounts of active compound desired are applied in 500 litres of water/ha.
(§5) Following the spray application, the plant containers are kept in the greenhouse under constant light and temperature conditions.
(§6) After three weeks, the degree of damage to the plants is rated in % damage in comparison to the development of the untreated control.
(§7) The figures denote: • 0%=no effect (like untreated control) • 100%=total destruction

[2] = system: Lolium perenne
[3] = system: Bromus secalinus
Method: as §1, §3
(§8) Test plants are grown under control conditions (temperature and light).
as §5, §6

[4] = system: Eriochloa villosa
[5] = system: Cassia tora; settings: 30 g of ai/ha
Method: as §1, §3, §8, §5, §6

[6] = system: Setaria viridis; settings: for Setria viridis observed: post-emergence
Excerpt: as §1, §2, §3, §4, §5, §6, §7

[7] = system: Alopecurus myosuroides; settings: 250 g of ai/ha
Excerpt: as §1, §2, §3, §4, §5, §6, §7

[8] = system: Veronica persicaria
Method: as §1, §3, §8, §5, §6

[9] = system: Digitaria sanguinalis
Excerpt: as §1, §2, §3, §4, §5, §6, §7

[10] = system: Matricaria inodora
Excerpt: as §1, §2, §3, §4, §5, §6, §7

[11] = Bromus secalinus, post-emergence, 504 h, 4 g of ai/ha, read-out: Bromus secalinus observed
[12] = Bromus secalinus, post-emergence, 504 h, read-out: Bromus secalinus observed

## COc1nc(C)nc(=NC(=O)NS(=O)(=O)c2ccccc2C(=O)O)[nH]1 [metsulfuron]
[1]; 4 g of ai/ha
  Cyperus esculentus observed: 30%
[2]; 2 g of ai/ha
  Lolium perenne observed: 70%
[3]; Bromus secalinus, post-emergence, 504 h, 2 g of ai/ha, read-out: Bromus secalinus observed
  pest or weed control at 2 g/ha: 0%
[3]; [11]
  pest or weed control at 4 g/ha: 0%

## COc1cc(OC)nc(NC(=O)NS(=O)(=O)c2ncccc2C(=O)N(C)C)n1 [nicosulfuron]
[4]; 30 g of ai/ha
  Eriochloa villosa observed: 90%

## O=C(Nc1ccc(F)cc1)c1cccc(Oc2cccc(C(F)(F)F)c2)n1 [picolinafen]
[2]; 15 g of ai/ha
  Lolium perenne observed: 0%
[2]; 30 g of ai/ha
  Lolium perenne observed: 20%
[5]
  Cassia tora observed: 70%
[4]; 15 g of ai/ha
  Eriochloa villosa observed: 30%
[4]; 30 g of ai/ha
  Eriochloa villosa observed: 80%

## CCOC(=O)COc1cc(-c2nn(C)c(OC(F)F)c2Cl)c(F)cc1Cl [pyraflufen ethyl]
[6]; application rate 2 g of ai/ha
  Setria viridis observed: 40%
[6]; application rate 4 g of ai/ha
  Setria viridis observed: 40%

## CCOC(=O)COc1cc(-c2nn(C)c(OC(F)F)c2Cl)c(F)cc1Cl [pyraflufen-ethyl]
[2]; 2 g of ai/ha
  Lolium perenne observed: 0%
[2]; 4 g of ai/ha
  Lolium perenne observed: 30%
[3]; [12]
  pest or weed control at 2 g/ha: 30%
  pest or weed control at 4 g/ha: 30%

## C[S+](C)C.O=C([O-])CNCP(=O)(O)O [sulfosate]
[7]
  Alopecurus myosuroides observed: 30%
[2]; 250 g of ai/ha
  Lolium perenne observed: 70%

## COC(=O)c1ccccc1S(=O)(=O)NC(=O)N(C)c1nc(C)nc(OC)n1 [tribenuron-methyl]
[1]; 4 g of ai/ha
  Cyperus esculentus observed: 0%
[1]; 8 g of ai/ha
  Cyperus esculentus observed: 0%
[3]; [11]
  pest or weed control at 4 g/ha: 0%
[3]; Bromus secalinus, post-emergence, 504 h, 8 g of ai/ha, read-out: Bromus secalinus observed
  pest or weed control at 8 g/ha: 0%
[8]; 4 g of ai/ha
  Veronica persicaria observed: 90%

## COc1nc(NC(=O)NS(=O)(=O)c2ccccc2C(F)(F)F)nc(C(F)(F)F)n1 [tritosulfuron]
[6]; 30 g of ai/ha
  Setaria viridis observed: 0%
[9]; 15 g of ai/ha
  Digitaria sanguinalis observed: 30%
[9]; 30 g of ai/ha
  Digitaria sanguinalis observed: 40%
[2]; 15 g of ai/ha
  Lolium perenne observed: 0%
[2]; 30 g of ai/ha
  Lolium perenne observed: 0%

## fluroxypyr
[10]; 60 g of ai/ha
  Matricaria inodora observed: 30%
[10]; 125 g of ai/ha
  Matricaria inodora observed: 70%
[3]; 60 g of ai/ha
  Bromus secalinus observed: 0%
[3]; 125 g of ai/ha
  Bromus secalinus observed: 0%
[8]; 125 g of ai/ha
  Veronica persicaria observed: 90%

## glyphosate
[3]; 125 g of ai/ha
  Bromus secalinus observed: 20%
[3]; 250 g of ai/ha
  Bromus secalinus observed: 80%
[8]; 250 g of ai/ha
  Veronica persicaria observed: 50%
[4]; 250 g of ai/ha
  Eriochloa villosa observed: 70%

## imazamox
[10]; 8 g of ai/ha
  Matricaria inodora observed: 30%
[10]; 15 g of ai/ha
  Matricaria inodora observed: 50%
[9]; 8 g of ai/ha
  Digitaria sanguinalis observed: 30%
[3]; 8 g of ai/ha
  Bromus secalinus observed: 60%

## iodosulfuron
[6]; 2 g of ai/ha
  Setaria viridis observed: 0%
[6]; 4 g of ai/ha
  Setaria viridis observed: 0%
[3]; 2 g of ai/ha
  Bromus secalinus observed: 0%
[3]; 4 g of ai/ha
  Bromus secalinus observed: 0%
[8]; 2 g of ai/ha
  Veronica persicaria observed: 90%

## sulcotrione
[3]; 60 g of ai/ha
  Bromus secalinus observed: 0%
[3]; 120 g of ai/ha
  Bromus secalinus observed: 30%

## terbuthylazine
[3]; 500 g of ai/ha
  Bromus secalinus observed: 50%

## thifensulfuron-methyl
[6]; 15 g of ai/ha
  Setaria viridis observed: 0%
[3]; 8 g of ai/ha
  Bromus secalinus observed: 0%
[3]; 15 g of ai/ha
  Bromus secalinus observed: 0%
[4]; 15 g of ai/ha
  Eriochloa villosa observed: 10%
